≈ marks a conversion by molar mass, not a printed value. Read-outs that look alike come from different tables or passages of the source.

In data set [1] the test system is Brassica napus L. The data set is described as follows: Pre-emergence herbicidal inhibition assay, Petri dish test, BN. In kind it is in vivo. The note with it: for EC50: Brassica napus, 168 h, 7 days; for Relative activity ratio (BN root) / Relative activity ratio (BN stalk): relative to FOS. Here is the method: (§1) The pre-emergence activity of the compounds against monocot Echinochloa crus-galli (EC) and dicot Brassica napus L. (BN) was evaluated using the standard Petri dish test. The compounds were dissolved in DMF, emulsified with Tween-80 and diluted with water to form stock solutions, each of which was further diluted to a gradient of 100, 50, 25, 10 and 1 mg/L for test. The test solutions were added to Petri dishes lined with a filter paper, on which 10 seeds of EC and BN were placed. After cultured in an intelligent climate chamber with a humidity of 65% at 26 °C for 7 days, the corresponding EC50 values were calculated.

Data set [2] relates to Echinochloa crus-galli. As to the kind of experiment: Pre-emergence herbicidal inhibition assay, Petri dish test, EC. The note with it: for EC50: Echinochloa crus-galli, 168 h, 7 days; for Relative activity ratio (EC root) / Relative activity ratio (EC stalk): relative to FOS. It counts as in vivo. Here is the method: as §1
In data set [3] the target is recombinant E. coli DXR (EcDXR) (Escherichia coli, UniProt P45568). As to the kind of experiment: biochemical. The following applies: read-out: InR (%) on DXR enzyme.
Sequence of recombinant E. coli DXR (EcDXR) (P45568 whole entry): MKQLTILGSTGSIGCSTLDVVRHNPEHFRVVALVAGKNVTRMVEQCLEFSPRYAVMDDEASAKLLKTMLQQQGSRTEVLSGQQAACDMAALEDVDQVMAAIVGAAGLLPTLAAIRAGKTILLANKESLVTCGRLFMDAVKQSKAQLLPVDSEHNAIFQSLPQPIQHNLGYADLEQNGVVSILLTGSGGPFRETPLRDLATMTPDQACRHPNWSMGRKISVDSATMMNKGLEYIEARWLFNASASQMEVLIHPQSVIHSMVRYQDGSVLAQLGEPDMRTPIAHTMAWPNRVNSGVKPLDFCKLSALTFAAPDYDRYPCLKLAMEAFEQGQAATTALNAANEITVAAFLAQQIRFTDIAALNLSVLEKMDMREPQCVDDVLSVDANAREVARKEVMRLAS
Data set [4] concerns Arabidopsis thaliana. As to the kind of experiment: Arabidopsis growth inhibition assay (24-well plates, green channel pixel value). The following applies: Arabidopsis thaliana, 240 h; for EC50: read-out: EC50 against Arabidopsis growth; for pest or weed control at 100 µg/mL: read-out: InR (%) against Arabidopsis.

`Cc1n[nH]c(C(F)(F)F)c1CC(P(=O)(O)O)P(=O)(O)O` [Compound 12i] returned a melting point greater than 250 °C. In data set [1] (root, read-out: EC50 BN Root), the EC50 is 36.6 µg/mL (≈ 108 µM). Moreover, in data set [1] (stalk, read-out: EC50 BN Stalk), the EC50 was 21.7 µg/mL (≈ 64.2 µM). In data set [1], the “Relative activity ratio (BN root)” value is reported as 0.9 fold and the “Relative activity ratio (BN stalk)” value turned out to be 1.5 fold. Besides, the EC50 in data set [2] (root, read-out: EC50 EC Root) was found to be 53.1 µg/mL (≈ 157 µM). Besides, the EC50 in data set [2] (stalk, read-out: EC50 EC Stalk) is 47.7 µg/mL (≈ 141 µM). Moreover, in data set [2], the “Relative activity ratio (EC root)” value came out at 0.8 fold and the “Relative activity ratio (EC stalk)” value came out at 0.8 fold. Also, the inhibition at 100 µM in data set [3] turned out to be 27.1%. Also, in data set [4], the EC50 worked out at 88.3 ± 4.3 µg/mL (≈ 261 µM) and the pest or weed control at 100 µg/mL was determined as 55.8%.
As to `Cc1noc(C)c1CC(P(=O)(O)O)P(=O)(O)O` [Compound 13g], the melting point was greater than 250 °C. Besides, the EC50 in data set [1] (root, read-out: EC50 BN Root) stood at 60.4 µg/mL (≈ 212 µM). Also, the EC50 in data set [1] (stalk, read-out: EC50 BN Stalk) amounted to 41.5 µg/mL (≈ 146 µM). Moreover, in data set [2] (root, read-out: EC50 EC Root), the EC50 is 79.8 µg/mL (≈ 280 µM). For the same compound, the EC50 in data set [2] (stalk, read-out: EC50 EC Stalk) amounted to 32.3 µg/mL (≈ 113 µM). In addition, the inhibition at 100 µM in data set [3] is 7.3%. Moreover, in data set [4], the EC50 was greater than 100 µg/mL and the pest or weed control at 100 µg/mL worked out at 39.7%.
`CCc1noc(CC)c1CC(P(=O)(O)O)P(=O)(O)O` [Compound 13h]: the melting point was greater than 250 °C. Besides, in data set [1] (root, read-out: EC50 BN Root), the EC50 is 39.2 µg/mL (≈ 125 µM). Also, the EC50 in data set [1] (stalk, read-out: EC50 BN Stalk) was 50.8 µg/mL (≈ 162 µM). Moreover, the EC50 in data set [2] (root, read-out: EC50 EC Root) was 48 µg/mL (≈ 153 µM). Further, in data set [2] (stalk, read-out: EC50 EC Stalk), the EC50 came to 45.7 µg/mL (≈ 146 µM). Besides, the inhibition at 100 µM in data set [3] came to 10.3%. In data set [4], the EC50 is greater than 100 µg/mL and the pest or weed control at 100 µg/mL came to 43.2%.
Consider `Cc1onc(C(F)(F)F)c1CC(P(=O)(O)O)P(=O)(O)O` [Compound 13i], for which the melting point was in the range of 240 to 241 °C. Besides, the EC50 in data set [1] (root, read-out: EC50 BN Root) came out at 40.5 µg/mL (≈ 119 µM). In addition, in data set [1] (stalk, read-out: EC50 BN Stalk), the EC50 came to 33.5 µg/mL (≈ 98.8 µM). Further, in data set [1], the “Relative activity ratio (BN root)” value is given as 0.9 fold and the “Relative activity ratio (BN stalk)” value was 1.0 fold. Further, the EC50 in data set [2] (root, read-out: EC50 EC Root) is 32.1 µg/mL (≈ 94.7 µM). Also, the EC50 in data set [2] (stalk, read-out: EC50 EC Stalk) turned out to be 34.6 µg/mL (≈ 102 µM). Besides, in data set [2], the “Relative activity ratio (EC root)” value is listed as 1.3 fold and the “Relative activity ratio (EC stalk)” value stood at 1.1 fold. In data set [3], the inhibition at 100 µM is 30.3%. In data set [4], the 50% effective concentration (EC50) was found to be 40.7 ± 2.9 µg/mL (≈ 120 µM) and the pest or weed control at 100 µg/mL worked out at 90.1%.
Regarding `CC1(C)CON(CCCP(=O)(O)O)C1=O` [Compound 19], the melting point is greater than 250 °C. The EC50 in data set [1] (root, read-out: EC50 BN Root) worked out at 79.3 µg/mL (≈ 334 µM). In data set [1] (stalk, read-out: EC50 BN Stalk), the EC50 is 39.2 µg/mL (≈ 165 µM). Besides, in data set [1], the “Relative activity ratio (BN root)” value worked out at 0.4 fold and the “Relative activity ratio (BN stalk)” value amounted to 0.8 fold. In data set [2] (root, read-out: EC50 EC Root), the EC50 is greater than 100 µg/mL. Further, the EC50 in data set [2] (stalk, read-out: EC50 EC Stalk) is 88 µg/mL (≈ 371 µM). Moreover, in data set [2], the “Relative activity ratio (EC root)” value came out at 0.4 fold and the “Relative activity ratio (EC stalk)” value stood at 0.4 fold. Further, in data set [3], the inhibition at 100 µM is 22.5%. Also, in data set [4], the EC50 was greater than 100 µg/mL and the pest or weed control at 100 µg/mL amounted to 43.2%.

The values are drawn from paper PMC10673511, “Design, Synthesis and Bioactivity Evaluation of Heterocycle-Containing Mono- and Bisphosphonic Acid Compounds” (Molecules, 2023).
